{
  "source": "paper PMC2799658",
  "about": "“A Multidimensional Strategy to Detect Polypharmacological Targets in the Absence of Structural and Sequence Homology” (PLoS Computational Biology, 2010)",
  "key": {"[1]": {"biological_target": "T1, T. brucei UDP-galactose 4′ epimerase (TbGalE) (Trypanosoma brucei, UniProt Q8T8E9)", "T1 construct": "gene galE; isolated protein; construct and host not described in main text (assay details in Text S1); 1GY8 is the docked crystal structure", "T1 sequence (Q8T8E9 1-395)": "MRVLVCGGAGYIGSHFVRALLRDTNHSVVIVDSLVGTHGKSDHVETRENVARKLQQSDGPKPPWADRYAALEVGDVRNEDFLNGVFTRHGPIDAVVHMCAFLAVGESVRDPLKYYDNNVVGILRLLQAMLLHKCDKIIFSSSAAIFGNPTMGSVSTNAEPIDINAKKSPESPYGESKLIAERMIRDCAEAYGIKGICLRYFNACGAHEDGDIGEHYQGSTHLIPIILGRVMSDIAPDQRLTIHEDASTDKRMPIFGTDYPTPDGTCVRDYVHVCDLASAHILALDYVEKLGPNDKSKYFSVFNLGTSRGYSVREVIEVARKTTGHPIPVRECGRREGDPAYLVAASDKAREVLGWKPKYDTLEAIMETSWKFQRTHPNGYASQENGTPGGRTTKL", "assay": "enzyme inhibition assay (details in Text S1)", "type": "biochemical"}, "[2]": {"biological_target": "T2, H. sapiens mitochondrial 2-enoyl thioester reductase (HsETR1) (Homo sapiens, UniProt Q9BV79)", "T2 construct": "gene MECR; isolated protein; construct and host not described in main text (assay details in Text S1); 1ZSY is the docked crystal structure", "T2 sequence (Q9BV79 54-373)": "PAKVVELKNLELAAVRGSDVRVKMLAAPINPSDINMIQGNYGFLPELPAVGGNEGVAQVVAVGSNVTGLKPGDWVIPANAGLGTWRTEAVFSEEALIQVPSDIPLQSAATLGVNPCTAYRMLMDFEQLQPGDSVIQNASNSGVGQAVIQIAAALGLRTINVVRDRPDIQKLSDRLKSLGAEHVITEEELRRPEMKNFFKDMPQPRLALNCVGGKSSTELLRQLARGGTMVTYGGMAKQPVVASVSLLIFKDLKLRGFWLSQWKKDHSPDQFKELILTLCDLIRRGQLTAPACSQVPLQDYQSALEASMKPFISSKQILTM", "assay": "enzyme inhibition assay (details in Text S1)", "type": "biochemical"}},
  "data": [
    {"compound": "O=S(=O)(O)c1cc(O)c2c(O)c(N=Nc3cccc4ccccc34)c(S(=O)(=O)O)cc2c1", "note": "[compound 1, 4,5-dihydroxy-3-(1-naphthyldiazenyl)-2,7-naphthalenedisulfonic acid]", "values": [
      {"measurement": "IC50", "setting": "[1]", "value": "700 ± 200", "unit": "nM"},
      {"measurement": "IC50", "setting": "[2]", "value": "~33.5", "unit": "µM"}
    ]}
  ]
}
